Measurements as given in the supplement of paper PMC3493320.

Assays:
NCI-H295R [1] = assay: IC50 (antiproliferative, ATP content); conditions: 48 h
NCI-H295R [2] = assay: maximal response (efficacy) relative to DMSO (0%) and doxorubicin (-100%); higher = less growth inhibition; conditions: 48 h

Structure (SMILES) | IC50 (NCI-H295R [1]) [µM] | maximal response (NCI-H295R [2]) [%]
CC(C)CCC[C@@H](C)[C@H]1CC(=O)C2=C3CC[C@H]4C[C@@H](O)CC[C@]4(C)[C@H]3CC[C@@]21C | 8.41 | -65
O=C\1OC/C(=C/1)[C@H]2CC[C@@]9(O)[C@]2(C)[C@H](O)C[C@H]3[C@H]9CC[C@@H]4C[C@H](CC[C@]34C)O[C@@H]8O[C@H](C)[C@@H](O[C@@H]7O[C@H](C)[C@@H](O[C@@H]6O[C@H](C)[C@@H](O[C@@H]5O[C@H](CO)[C@@H](O)[C@H](O)[C@H]5O)[C@@H](O)C6)[C@@H](O)C7)[C@@H](O)C8 | 0.335 | -110
Cn1cnc([N+](=O)[O-])c1Sc1ncnc2nc[nH]c12 | 11.9 | -82.1
CC1=C(/C=C/C(C)=C/C=C/C(C)=C/C(=O)Nc2ccc(O)cc2)C(C)(C)CCC1 | 9.44 | -125
CC[P](CC)(CC)=[Au][S][C@H]1O[C@@H](COC(C)=O)[C@H](OC(C)=O)[C@@H](OC(C)=O)[C@@H]1OC(C)=O | 1.88 | -128
O=C1NCN(c2ccccc2)C12CCN(CCCC(c1ccc(F)cc1)c1ccc(F)cc1)CC2 | 11.9 | -137
[C@@]42([C@@]([C@@H](/C/1=C/OC(\C=C\1)=O)CC2)(CC[C@@H]5[C@]\3(CC[C@@H](/C=C/3CC[C@@H]45)O[C@H]6[C@@H]([C@@H]([C@H]([C@@H](O6)C)O)O)O)C)C)O | 0.0128 | -111
Oc1c(I)cc(Cl)c2cccnc12 | 8.41 | -64.3
COCC(=O)Nc1cc(Sc2ccccc2)ccc1N=C(NC(=O)OC)NC(=O)OC | 8.41 | -64.1
Nc1nc(N)c2nc(-c3ccccc3)c(N)nc2n1 | 2.66 | -89.3
Cc1cc(O)c2ccccc2c1O | 21.1 | -137
O=C3O[C@@H]2[C@@H]1O[C@@](C)1CC/C=C(C)/CC[C@H]2[C@@]3=C | 18.8 | -138
C[n+]1c2cc(N)ccc2cc2ccc(N)cc21.Nc1ccc2cc3ccc(N)cc3nc2c1.[Cl-] | 21.1 | -168
CC(=O)Oc1ccccc1C(=O)Nc1ncc([N+](=O)[O-])s1 | 15 | -70.8
CC(C)(O)c1ccccc1CC[C@@H](SCC1(CC(=O)[O-])CC1)c1cccc(/C=C/c2ccc3ccc(Cl)cc3n2)c1.[Na+] | 16.8 | -142
c1ccc2c(c1)OCC(C1=NCCN1)O2 (configuration not stated) | 18.8 | -106
[H][C@]1(CC3)[C@]([C@H]5C[C@@H]4[C@@](C=C6)=COC6=O)(O5)[C@]4(C)CC[C@]([C@]2(C)[C@@]3([H])C[C@@H](O)CC2)1[H] | 6.68 | -105
[O-]n1ccccc1=S.[O-]n1ccccc1=S.[Zn+2] | 2.66 | -125
O=C(Nc1ccc([N+](=O)[O-])cc1Cl)c1cc(Cl)ccc1O | 0.531 | -94.3
Oc1cc[c]([Hg][Cl])cc1 | 2.66 | -130
COc1ccc(-c2ccc3cc(C(=O)O)ccc3c2)cc1C12CC3CC(CC(C3)C1)C2 | 6.68 | -122
CC(C)C[C@@H]1NC(=O)[C@H](CCCN)NC(=O)[C@H](C(C)C)NC(=O)[C@@H]2CCCN2C(=O)[C@@H](Cc2ccccc2)NC(=O)[C@H](CC(C)C)NC(=O)[C@H](CCCN)NC(=O)[C@H](C(C)C)NC(=O)[C@@H]2CCCN2C(=O)[C@@H](Cc2ccccc2)NC1=O | 8.41 | -121
CC[C@@H](C(=O)[C@@H](C)[C@@H](O)[C@H](C)[C@@H]1O[C@@H]([C@@H](CC)C(=O)[O-])CC[C@@H]1C)[C@H]1O[C@]2(C=C[C@@H](O)[C@]3(CC[C@@](C)([C@H]4CC[C@](O)(CC)[C@H](C)O4)O3)O2)[C@H](C)C[C@@H]1C.[Na+] | 13.3 | -80.1
C[C@H]1CC[C@@H]2[C@@H](C)[C@H]3[C@H](C[C@H]4[C@@H]5CC=C6CC(O[C@@H]7O[C@H](CO)[C@H](O)[C@H](O[C@@H]8O[C@H](CO)[C@@H](O)[C@H](O)[C@H]8O)[C@H]7O[C@H]7O[C@@H](C)[C@H](O)[C@@H](O)[C@H]7O)CC[C@]6(C)[C@H]5CC[C@]34C)N2C1 (some centres not stated) | 18.8 | -135
O=C\1OC/C(=C/1)[C@H]8CC[C@@]7(O)[C@]8(C)CC[C@H]2[C@H]7CC[C@@H]3C[C@H](CC[C@]23C)O[C@@H]6O[C@H](C)[C@@H](O[C@H]5C[C@H](O)[C@H](O[C@H]4C[C@H](O)[C@H](O)[C@@H](C)O4)[C@@H](C)O5)[C@@H](O)C6 | 0.0841 | -109
[O-]C(C(I)=C2)=C(I)C=C2/C(C(C=CC=C3)=C3C([O-])=O)=C1\C=C(I)C(C(I)=C1)=O.[Na+].[Na+] | 26.6 | -104
